Results on 1 compound are retold here after patent EP2292587A1, “PHARMACEUTICAL COMPOSITION FOR INHIBITING THE TRANSCRIPTION FACTOR INDUCIBLE BY HYPOXIA, MODULATORS OF PATHOLOGICAL PROCESSES OF ANGIOGENESIS, ONCOGENESIS, INFLAMMATION, APOPTOSIS, AND CELLULAR THERAPY” (Fundacion De La Comunidad Valenciana Centro De …, priority 2008, dated 2009).

The structures appear in SMILES notation. Read-outs that look alike come from different tables or passages of the source.

In one assay the test system is HT29. As to the kind of experiment: anchorage-independent growth in semisolid agar, HT29. Format: cell-based, human. Particulars: 0.5 µM, 10 days, versus DMSO, p ≤ 0.005. How it is done:
Anchorage-independent cell growth is a study which allows predicting the tumorigenicity of tumor cells in vivo. Anchorage-independent cell growth studies were performed for HT29, HCT116/p53^+/+ and HCT116/p53^-/- cells in semisolid agar which were monitored daily to determine the efficiency of the formation of colonies in the presence of carrier (DMSO) or FM19G11. To that end, the starting material was 75 x 10^3 cells suspended in semisolid agar, which were maintained until 10 days later. […] A reduction of the formation of colonies in the HCT116/p53^-/- cells is not observed. The growth of colonies was quantified in three independent experiments by means of counting colonies in the 4 x magnification optical field of an inverted optical microscope.

Another assay has as its system HCT116/p53-/- cells. As to the kind of experiment: cell cycle distribution by flow cytometry, HCT116/p53-/-. It counts as cell-based, human. Particulars: 0.5, 1, 5, 10 µM, 3 or 6 days. An excerpt:
It was investigated if the activation of DDR by FM19G11 caused a delay in the cycle progress through the G1/S phases in HCT116 tumor cells, as has been described for other DNA-damaging agents (.Lim, DS, Kim, ST, Xu, B, Maser, RS, Lin, J, Petrini, JH et al., (2000) ATM phosphorylates p95/nbs1 in an S-phase checkpoint pathway. Nature 404: 613-7.; Jazayeri, A, Falck, J, Lukas, C, Bartek, J, Smith, GC, Lukas, J et al., (2006) ATM- and cell cycle-dependent regulation of ATR in response to DNA double-strand breaks. Nat Cell Biol 8: 37-45; Liu, JS, Kuo, SR, Beerman, TA and Melendy, T, (2003) Induction of DNA damage responses by adozelesin is S phase-specific and dependent on active replication forks. Mol Cancer Ther 2: 41-7; Ranjan, P and Heintz, NH, (2006) S-phase arrest by reactive nitrogen species is bypassed by okadaic acid, an inhibitor of protein phosphatases PP1/PP2A. Free Radic Biol Med 40: 247-59.). The HCT116 p53+/+ and HCT116 p53-/- cells were exposed for 3 or 6 days to the carrier (DMSO) or to FM19G11 (0.5, 1, 5, 10 µM). […] (Figure 24).
A- The HCT116/p53+/+ cells and B-HCT116/p53-/- cells were exposed to different concentrations of FM19G11 (0.5, 1, 5, 10 µM) or carrier for 3 or 6 days to analyze the distribution of cells in the different cell cycle phases by means of flow cytometry. […]

A further assay concerns HIF. Kind of assay: luciferase cell assay based on the HIF response elements (HRE), HeLa 9XHRE-LUC. The arrangement: species or system human. Particulars: Homo sapiens, HeLa. An excerpt:
In order to identify direct inhibitors of the activity of HIF, a stable recombinant line was first constructed from the cervical tumor line, known in scientific literature as HeLa, which contained the deoxyribonucleic acid (DNA) sequences of the region located between positions -985 and -951 of the human vascular endothelial growth factor (hVEGF), repeated nine times (9X) and fused to the luciferase reporter gene (LUC). This plasmid, provided by Dr. Manuel Ortiz de Landazuri from the Hospital de La Princesa of Madrid, called 9XHRE-LUC, was prepared using a commercial kit (Endofree Maxi-Prep; Qiagen, Inc., Valencia, CA). The transfections were performed with FuGene6 (Roche, cat.1814443) according to the manufacturer's instructions, the µg DNA: µg FuGene ratio was 1:3. The transfected cell lines were generated by cotransfection with the vector pCMV-Hygrom which expressed a hygromycin resistance gene in mammalian cells, allowing the selection of the transfected clones. After 48 hours, the growth medium was substituted with fresh medium containing 100 µg/ml hygromycin (Sigma), the clones resistant to the antibiotic were collected and analyzed by means of RT-PCR to select the clone with the desired construct. Routinely, the HeLa 9XHRE-LUC cell line was maintained in exponential growth by means of performing subcultures in DMEM (Invitrogen-Life Technologies, Inc., Carlsbad, CA), supplemented with 10% inactivated fetal bovine serum (Whittacker Bioproducts), penicillin (50 IU/ml), streptomycin (50 µg/ml) (Invitrogen-Life Technologies, Inc., Carlsbad, CA). The cells were cultured at 37°C with a humidified atmosphere containing 5% CO2 and 300 nM Desferoxamine (DFX; Sigma St. Louis, MO).
The compounds of the Collection of the CIPF, coming from a selection of commercial collections of Sigma-Aldrich, were solubilized in DMSO at a final concentration of 5 mM and preserved at -80°C. The concentration of these compounds in the luciferase assay was 1 mcM finally in the well of the multi-well plate in which the reaction was carried out. The luciferase assays were performed in white 96-well plates (Valtecknova ref. 3917), using the kit Bright-Glo™ Luciferase Assay System (Promega, Inc., Madison, WI) following the instructions supplied by the manufacturer.
According to the methodology of the cell assay based on the HIF response elements (Example 1), the intermediate compounds of the synthesis and several synthesized analogs were tested to obtain the SAR of FM19G11.

A further assay has as its system ATR. As to the kind of experiment: activation kinetics of ATR (Western blot), HCT116/p53+/+. It counts as cell-based, human. Particulars: 0.5 µM, after 1 hour. An excerpt: To determine the degree of involvement of p53 in the possible effects caused by FM19G11, a HCT116 colon cancer cell line with expression of p53 and the same HCT116 line in which p53 was inactivated by homologous recombination were used (Bunz, F, Dutriaux, A, Lengauer, C, Waldman, T, Zhou, S, Brown, JP et al., (1998) Requirement for p53 and p21 to sustain G2 arrest after DNA damage. Science 282: 1497-501; Bunz, F, Hwang, PM, Torrance, C, Waldman, T, Zhang, Y, Dillehay, L et al., (1999) Disruption of p53 in human cancer cells alters the responses to therapeutic agents. J Clin Invest 104: 263-9.). The HCT116/p53^+/+ and HCT116/p53^-/- cells were exposed to FM19G11 (0.5 µM) at different times, the phosphorylation (activation) pattern of the ATR protein and of p53 which can be phosphorylated by ATR (Tibbetts, RS, Brumbaugh, KM, Williams, JM, Sarkaria, JN, Cliby, WA, Shieh, SY et al., (1999) A role for ATR in the DNA damage-induced phosphorylation of p53. Genes Dev 13: 152-7.), in p53-proficient HCT116 cells, as well as ATR in p53-deficient cells being analyzed (Figure 23). […] This quick activation of ATR coincides with that of p53 in HCT116/p53^+/+ cells after 1 hour of treatment with FM19G11 (0.5 µM), but the activation of p53 remains virtually on the expression of cells without drug, for the different times analyzed.

With `Cc1ccc(C(=O)COC(=O)c2cccc(NC(=O)c3ccc([N+](=O)[O-])cc3[N+](=O)[O-])c2)cc1` [FM19G11, 2-oxo-2-(p-tolyl)ethyl 3-((2,4-dinitro)benzamido)benzoate], in the assay on HT29, the “growth of colonies in semisolid agar” value is recorded as “significant decrease”. Further, the “G1/S phase cycle arrest” value in the assay with HCT116/p53-/- cells is given as “did not cause a G1/S phase cycle blocking”. The IC50 in the assay with HIF is 0.08 µM; in the assay with HIF (6 h, read-out: IC50 from dose response curve (Figure 2 B)), 0.08 µM; in the assay on HIF (read-out: IC50 HRE (µM)), 0.08 µM. The “phosphorylation of ATR” value in the assay with ATR is reported as “quick increase”.
